Patent US6506799B1, “Methods of treating cardiovascular diseases, dyslipidemia, dyslipoproteinemia, and hypertension with ether compounds” (Esperion Therapeutics, Inc., priority 1999, dated 2003)

Tests used:
Type in all cases: in vivo, rat
female obese Zucker rats = experiment: Experiment A: serum lipids, glucose, non-esterified fatty acids and weight gain in obese female Zucker rats after seven days; details: 86 mg/kg
Experimental: Dosing vehicle, Compound A (86 mg/kg of body weight) or troglitazone (120 mg/kg of body weight) was administered to eight week old female obese Zucker rats daily for seven days in the morning by oral gavage in 1.5% carboxymethylcellulose/0.2% Tween-20. Troglitazone was obtained commercially. Finely crushed tablets were suspended in vehicle for dosing. Orbital blood samples were obtained following a six-hour fast prior to the initial dose and also following the seventh dose.
Blood serum was assayed for total cholesterol and triglycerides (FIG. 5), lipoprotein cholesterol profiles (FIG. 6), VLDL plus LDL cholesterol combined (also referred to as apo B containing lipoprotein cholesterol or non-HDL cholesterol), HDL cholesterol, and the ratio of HDL cholesterol to that of VLDL plus LDL cholesterol (FIG. 7), serum glucose, and non-esterified fatty acids (FIG. 8), and percent weight gain (FIG. 9). […] In particular, Compound A caused a marked elevation in HDL cholesterol after one week of treatment. Using the serum total cholesterol values (FIG. 5A) and the lipoprotein cholesterol distribution (FIG. 6), the amount of cholesterol associated with non-HDL (i.e., VLDL plus LDL) and HDL were determined (FIG. 7). […] In contrast, troglitazone reduced non-HDL and HDL cholesterol by 67% and 4%, respectively.

[1] = test system: chow fed male Sprague-Dawley rats; experiment: Serum lipids, apolipoproteins and weight gain in chow fed male Sprague-Dawley rats after seven days of treatment
Experimental: Illustrative compounds of the invention were administered daily at a dose of 100 mg/kg to chow fed male Sprague-Dawley rats for seven days in the morning by oral gavage in 1.5% carboxymethylcellulose/0.2% Tween-20 (dosing vehicle). Animals were weighed daily. Animals were allowed free access to rodent chow and water throughout the study. After the seventh dose, animals were sacrificed in the evening and blood serum was assayed for lipoprotein cholesterol profiles, serum triglycerides, total cholesterol VLDL, LDL, and HDL cholesterol, and the ratio of HDL cholesterol to that of VLDL plus LDL cholesterol, apolipoproteins A-I, C-II, C-III, and E by immunoelectrophoresis, and percent weight gain.
The five compounds were tested in two separate experiments. In each experiment, the experimental data were normalized against a control group of rats which received the dosing vehicle alone.

[2] = test system: chow fed obese female Zucker rats; experiment: Experiments B, C, D, E: serum lipids, glucose, insulin, body and liver weight in obese female Zucker rats, 14 days; details: for Body Weight Gain (% of Pretreatment) / HDL-Cholesterol (% of Pretreatment) / Non HDL-Cholesterol (% of Pretreatment) / Triglycerides (% of Pretreatment): 14 days
Experimental: In a number of different experiments, illustrative compounds of the invention and troglitazone were administered daily at various doses to 10-week old chow fed obese female Zucker rats for 14 days in the morning by oral gavage in 1.5% carboxymethylcellulose/0.2% Tween-20 (dosing vehicle). Animals were weighed daily. Animals were allowed free access to rodent chow and water throughout the study. Blood glucose was determined after a 6-hour fast in the afternoon without anesthesia from a tail vein. Serum was also prepared from a blood sample subsequently obtained from the orbital venous plexus (with O2/CO2 anesthesia) prior to and after one week treatment and used lipid and insulin determinations. At two weeks, blood glucose was again determined after a 6-hour fast without anesthesia from a tail vein. Soon thereafter, animals were sacrificed by CO2 inhalation in the evening and cardiac blood serum was collected and assessed for various lipids and insulin. Body weight was determined daily prior to dosing and at the time of euthanasia.

[3] = 100 mg/kg, 7 days, compared to control, FIG. 3
[4] = 100 mg/kg, 7 days, vs vehicle, FIG. 2
[5] = 100 mg/kg/day oral gavage, 7 days, normalized against vehicle control
[6] = Experiment C, 100 mg/kg, after two weeks of treatment

For CC(C)(CO)CCCCOCCCCC(C)(C)CO [Compound A, 6-(6-hydroxy-5,5-dimethylhexyloxy)-2,2-dimethyl-hexan-1-ol], the “change of non-HDL cholesterol (VLDL plus LDL)” value (female obese Zucker rats; one week) was “+10.3%”, the “increase of HDL cholesterol” value (female obese Zucker rats; one week) was 3.9 fold and the “reduction of non-esterified fatty acids” value (female obese Zucker rats; one week) was 52%. For the same compound, the “reduction of serum triglycerides” value (female obese Zucker rats; one week) was 68%, the serum glucose (female obese Zucker rats; one week) was “did not induce a hypoglycemic state” and the “ratio of HDL/non-HDL cholesterol” value (female obese Zucker rats; one week treatment, pre-treatment 4.2) was 14.9. The “increase of the ratio of HDL/non-HDL cholesterol” value (female obese Zucker rats; one week, vs pre-treatment) was 3.6 fold, the “increase of total serum cholesterol” value (female obese Zucker rats; one week, vs pre-treatment) was 3.3 fold and the “increase in body weight” value (female obese Zucker rats; seven days, vehicle 6.6%) was 5.4%. For the same compound, the “elevation of apolipoprotein A-I” value [1, 3] was 16%, the “elevation of apolipoprotein E” value [1, 3] was 46% and the “reduction of apolipoprotein C-II” value [1, 3] was 20%. For the same compound, the “reduction of apolipoprotein C-III” value [1, 3] was 16%, the “ratio of HDL to non-HDL cholesterol (VLDL plus LDL)” value ([1]; 100 mg/kg, 7 days, control 2.6±0.2) was 6.2±1.0 and the “improvement in the ratio of HDL to non-HDL cholesterol” value ([1]; 100 mg/kg, 7 days, vs control) was 2.44 fold. The “change in VLDL cholesterol” value ([1]; 100 mg/kg, 7 days, vs vehicle) was “no change”, the “elevation in HDL cholesterol” value ([1]; 100 mg/kg, 7 days, vs vehicle) was 49% and the “reduction in LDL cholesterol” value ([1]; 100 mg/kg, 7 days, vs vehicle) was 41%. For the same compound, the “elevation of total serum cholesterol” value [1, 4] was 26%, the “reduction of serum triglycerides” value [1, 4] was 31% and the “percentage body weight gain” value ([1]; 100 mg/kg, after seven days, control 68.3±1.2%) was 63.4±1.9%. The “HDL-Cholesterol (% change)” value [1, 5] was “+21.1 % change”, the “LDL-Cholesterol (% change)” value [1, 5] was −27.7 % change and the “Triglyceride (% change)” value [1, 5] was “+7.6 % change”. The “Body Weight Gain (% of Pretreatment)” value ([2]; Experiment C, 1 mg/kg/day) was “+16.7 % of Pretreatment”, the “HDL-Cholesterol (% of Pretreatment)” value ([2]; Experiment C, 1 mg/kg/day) was −24.1 % of Pretreatment and the “Non HDL-Cholesterol (% of Pretreatment)” value ([2]; Experiment C, 1 mg/kg/day) was −25.6 % of Pretreatment. For the same compound, the “Triglycerides (% of Pretreatment)” value ([2]; Experiment C, 1 mg/kg/day) was −8.8 % of Pretreatment, the “Body Weight Gain (% of Pretreatment)” value ([2]; Experiment C, 3 mg/kg/day) was “+17.5 % of Pretreatment” and the “HDL-Cholesterol (% of Pretreatment)” value ([2]; Experiment C, 3 mg/kg/day) was −3.7 % of Pretreatment. For the same compound, the “Non HDL-Cholesterol (% of Pretreatment)” value ([2]; Experiment C, 3 mg/kg/day) was −29.6 % of Pretreatment, the “Triglycerides (% of Pretreatment)” value ([2]; Experiment C, 3 mg/kg/day) was −24.6 % of Pretreatment and the “Body Weight Gain (% of Pretreatment)” value ([2]; Experiment C, 10 mg/kg/day) was “+10.7 % of Pretreatment”. The “HDL-Cholesterol (% of Pretreatment)” value ([2]; Experiment C, 10 mg/kg/day) was “+154.4 % of Pretreatment”, the “Non HDL-Cholesterol (% of Pretreatment)” value ([2]; Experiment C, 10 mg/kg/day) was −14.2 % of Pretreatment and the “Triglycerides (% of Pretreatment)” value ([2]; Experiment C, 10 mg/kg/day) was −50.9 % of Pretreatment. The “Body Weight Gain (% of Pretreatment)” value ([2]; Experiment C, 30 mg/kg/day) was “+11.3 % of Pretreatment”, the “HDL-Cholesterol (% of Pretreatment)” value ([2]; Experiment C, 30 mg/kg/day) was “+369.7 % of Pretreatment” and the “Non HDL-Cholesterol (% of Pretreatment)” value ([2]; Experiment C, 30 mg/kg/day) was “+38.4 % of Pretreatment”. The “Triglycerides (% of Pretreatment)” value ([2]; Experiment C, 30 mg/kg/day) was −42.0 % of Pretreatment, the “glucose to insulin ratio” value ([2]; Experiment C, 100 mg/kg) was “reduced” and the “Body Weight Gain (% of Pretreatment)” value ([2]; Experiment C, 100 mg/kg/day) was “+9.2 % of Pretreatment”. For the same compound, the “HDL-Cholesterol (% of Pretreatment)” value ([2]; Experiment C, 100 mg/kg/day) was “+801.8 % of Pretreatment”, the “Non HDL-Cholesterol (% of Pretreatment)” value ([2]; Experiment C, 100 mg/kg/day) was “+45.1 % of Pretreatment” and the “Triglycerides (% of Pretreatment)” value ([2]; Experiment C, 100 mg/kg/day) was −57.0 % of Pretreatment. For the same compound, the HDL-cholesterol increase [2, 6] was 802%, the “elevation of HDL-cholesterol” value [2, 6] was 9 fold and the blood glucose ([2]; Experiment C, 100 mg/kg, fasted) was “tendency to lower blood glucose”. For the same compound, the “glucose to insulin ratio” value ([2]; Experiment C, 1 and 3 mg/kg, two weeks) was “declined by approximately ⅓ to ½”, the weight gain ([2]; Experiment C, 10, 30 and 100 mg/kg, after one and two weeks) was “markedly reduced” and the “glucose to insulin ratio” value ([2]; Experiment C, 10 and 30 mg/kg) was “sustained at pretreatment levels”. The “minimal effective dose for reduction in serum triglycerides” value ([2]; Experiment C, FIG. 10) was “approximately 3 mg/kg”, the “dose at which elevation of serum total cholesterol begins” value ([2]; Experiment C, FIG. 11) was “approximately 10 mg/kg/day” and the “percent liver to body weight” value ([2]; Experiment C, after two weeks of treatment, FIG. 16) was “increased in a dose dependent manner”. For the same compound, the serum triglyceride levels ([2]; Experiment C, doses 1-100 mg/kg, FIG. 10) was “reduced serum triglyceride levels at all doses”, the “rise in serum insulin” value ([2]; Experiment C, higher doses (10, 30, 100 mg/kg)) was “largely curtailed or minimized” and the “Body Weight Gain (% of Pretreatment)” value ([2]; Experiment D, 10 mg/kg/day) was “+2.2 % of Pretreatment”. The “HDL-Cholesterol (% of Pretreatment)” value ([2]; Experiment D, 10 mg/kg/day) was “+133.9 % of Pretreatment”, the “Non HDL-Cholesterol (% of Pretreatment)” value ([2]; Experiment D, 10 mg/kg/day) was “+49.3 % of Pretreatment” and the “Triglycerides (% of Pretreatment)” value ([2]; Experiment D, 10 mg/kg/day) was −11.1 % of Pretreatment. The “Body Weight Gain (% of Pretreatment)” value ([2]; Experiment D, 100 mg/kg/day) was “+4.5 % of Pretreatment”, the “HDL-Cholesterol (% of Pretreatment)” value ([2]; Experiment D, 100 mg/kg/day) was “+187.9 % of Pretreatment” and the “Non HDL-Cholesterol (% of Pretreatment)” value ([2]; Experiment D, 100 mg/kg/day) was “+7.5 % of Pretreatment”. For the same compound, the “Triglycerides (% of Pretreatment)” value ([2]; Experiment D, 100 mg/kg/day) was −62.9 % of Pretreatment, the “Body Weight Gain (% of Pretreatment)” value ([2]; Experiment E, 100 mg/kg/day) was “+19.1 % of Pretreatment” and the “HDL-Cholesterol (% of Pretreatment)” value ([2]; Experiment E, 100 mg/kg/day) was “+232.1 % of Pretreatment”. The “Non HDL-Cholesterol (% of Pretreatment)” value ([2]; Experiment E, 100 mg/kg/day) was “+7.2 % of Pretreatment” and the “Triglycerides (% of Pretreatment)” value ([2]; Experiment E, 100 mg/kg/day) was −43.2 % of Pretreatment.
